Measurements taken from ChEMBL document CHEMBL3045868, “Synthesis and antibacterial activities of para-alkoxy phenyl--ketoaldehyde derivatives” (Med Chem Res, 2013).
Values after ≈ are worked out from the molar mass of the structure shown.

Legend:
Assay type in all cases: functional
Staphylococcus aureus [1] = experiment: Bactericidal activity against Staphylococcus aureus clinical isolate 10 after 24 hr; settings: isolate 10, 24 h
Staphylococcus aureus [2] = experiment: Antibacterial activity against methicillin-resistant Staphylococcus aureus isolate 2 assessed as growth inhibition after 16 to 18 hr by NCCLS agar dilution method
Staphylococcus aureus [3] = experiment: Antibacterial activity against Staphylococcus aureus clinical isolate 4 assessed as growth inhibition after 16 to 18 hr by NCCLS agar dilution method
Staphylococcus aureus [4] = experiment: Bactericidal activity against methicillin-resistant Staphylococcus aureus isolate 2 after 24 hr; settings: isolate 2, 24 h
Staphylococcus aureus [5] = experiment: Antibacterial activity against methicillin-resistant Staphylococcus aureus isolate 5 assessed as growth inhibition after 16 to 18 hr by NCCLS agar dilution method
Staphylococcus aureus [6] = experiment: Antibacterial activity against methicillin-resistant Staphylococcus aureus assessed as growth inhibition after 16 to 18 hr by NCCLS agar dilution method
Staphylococcus aureus [7] = experiment: Bactericidal activity against Staphylococcus aureus clinical isolate 8 after 24 hr; settings: isolate 8, 24 h
Staphylococcus aureus [8] = experiment: Antibacterial activity against Staphylococcus aureus clinical isolate 6 assessed as growth inhibition after 16 to 18 hr by NCCLS agar dilution method
Staphylococcus aureus [9] = experiment: Bactericidal activity against Staphylococcus aureus clinical isolate 7 after 24 hr; settings: isolate 7, 24 h
Staphylococcus aureus [10] = experiment: Antibacterial activity against Staphylococcus aureus clinical isolate 3 assessed as growth inhibition after 16 to 18 hr by NCCLS agar dilution method
Staphylococcus aureus [11] = experiment: Antibacterial activity against Staphylococcus aureus clinical isolate 5 assessed as growth inhibition after 16 to 18 hr by NCCLS agar dilution method
Staphylococcus aureus [12] = experiment: Bactericidal activity against Staphylococcus aureus clinical isolate 9 after 24 hr; settings: isolate 9, 24 h
Staphylococcus aureus [13] = experiment: Bactericidal activity against Staphylococcus aureus clinical isolate 4 after 24 hr; settings: isolate 4, 24 h
Staphylococcus aureus [14] = experiment: Antibacterial activity against Staphylococcus aureus clinical isolate 1 assessed as growth inhibition after 16 to 18 hr by NCCLS agar dilution method
Staphylococcus aureus [15] = experiment: Bactericidal activity against methicillin-resistant Staphylococcus aureus isolate 3 after 24 hr; settings: isolate 3, 24 h
Staphylococcus aureus [16] = experiment: Antibacterial activity against Staphylococcus aureus clinical isolate 8 assessed as growth inhibition after 16 to 18 hr by NCCLS agar dilution method
Staphylococcus aureus [17] = experiment: Bactericidal activity against Staphylococcus aureus clinical isolate 5 after 24 hr; settings: isolate 5, 24 h
Staphylococcus aureus [18] = experiment: Bactericidal activity against methicillin-resistant Staphylococcus aureus isolate 1 after 24 hr; settings: isolate 1, 24 h
Staphylococcus aureus [19] = experiment: Antibacterial activity against Staphylococcus aureus clinical isolate 10 assessed as growth inhibition after 16 to 18 hr by NCCLS agar dilution method
Staphylococcus aureus [20] = experiment: Antibacterial activity against Staphylococcus aureus ATCC 25923 assessed as growth inhibition after 16 to 18 hr by NCCLS agar dilution method
Staphylococcus aureus [21] = experiment: Antibacterial activity against Staphylococcus aureus clinical isolate 2 assessed as growth inhibition after 16 to 18 hr by NCCLS agar dilution method
Staphylococcus aureus [22] = experiment: Antibacterial activity against Staphylococcus aureus clinical isolate 7 assessed as growth inhibition after 16 to 18 hr by NCCLS agar dilution method
Staphylococcus aureus [23] = experiment: Bactericidal activity against methicillin-resistant Staphylococcus aureus after 24 hr
Staphylococcus aureus [24] = experiment: Antibacterial activity against Staphylococcus aureus clinical isolate assessed as growth inhibition after 16 to 18 hr by NCCLS agar dilution method
Staphylococcus aureus [25] = experiment: Bactericidal activity against Staphylococcus aureus clinical isolate after 24 hr
Staphylococcus aureus [26] = experiment: Antibacterial activity against methicillin-resistant Staphylococcus aureus isolate 4 assessed as growth inhibition after 16 to 18 hr by NCCLS agar dilution method
Staphylococcus aureus [27] = experiment: Bactericidal activity against Staphylococcus aureus clinical isolate 6 after 24 hr; settings: isolate 6, 24 h
Staphylococcus aureus [28] = experiment: Antibacterial activity against methicillin-resistant Staphylococcus aureus isolate 3 assessed as growth inhibition after 16 to 18 hr by NCCLS agar dilution method
Staphylococcus aureus [29] = experiment: Bactericidal activity against methicillin-resistant Staphylococcus aureus isolate 4 after 24 hr; settings: isolate 4, 24 h
Staphylococcus aureus [30] = experiment: Antibacterial activity against methicillin-resistant Staphylococcus aureus isolate 1 assessed as growth inhibition after 16 to 18 hr by NCCLS agar dilution method
Staphylococcus aureus [31] = experiment: Bactericidal activity against Staphylococcus aureus clinical isolate 3 after 24 hr; settings: isolate 3, 24 h
Staphylococcus aureus [32] = experiment: Antibacterial activity against Staphylococcus aureus clinical isolate 9 assessed as growth inhibition after 16 to 18 hr by NCCLS agar dilution method
Staphylococcus aureus [33] = experiment: Bactericidal activity against Staphylococcus aureus clinical isolate 1 after 24 hr; settings: isolate 1, 24 h
Staphylococcus aureus [34] = experiment: Bactericidal activity against methicillin-resistant Staphylococcus aureus isolate 5 after 24 hr; settings: isolate 5, 24 h
Staphylococcus aureus [35] = experiment: Bactericidal activity against Staphylococcus aureus clinical isolate 2 after 24 hr; settings: isolate 2, 24 h
Pseudomonas aeruginosa = experiment: Antibacterial activity against Pseudomonas aeruginosa ATCC 27853 assessed as growth inhibition after 16 to 18 hr NCCLS agar dilution method
Escherichia coli = experiment: Antibacterial activity against Escherichia coli ATCC 25922 assessed as growth inhibition after 16 to 18 hr NCCLS agar dilution method

## CCCCCCCCCC(=O)CC=O [HOUTTUYNIN]
Staphylococcus aureus [1]
  MBC: 128 µg/mL (≈ 645 µM)
Staphylococcus aureus [2]
  MIC: 16 µg/mL (≈ 80.7 µM)
Staphylococcus aureus [3]
  MIC: 64 µg/mL (≈ 323 µM)
Staphylococcus aureus [4]
  MBC: 128 µg/mL (≈ 645 µM)
Staphylococcus aureus [5]
  MIC: 16 µg/mL (≈ 80.7 µM)
Staphylococcus aureus [6]
  MIC50: 16 µg/mL (≈ 80.7 µM)
  MIC90: 16 µg/mL (≈ 80.7 µM)
Staphylococcus aureus [7]
  MBC: 128 µg/mL (≈ 645 µM)
Staphylococcus aureus [8]
  MIC: 64 µg/mL (≈ 323 µM)
Staphylococcus aureus [9]
  MBC: 64 µg/mL (≈ 323 µM)
Staphylococcus aureus [10]
  MIC: 64 µg/mL (≈ 323 µM)
Staphylococcus aureus [11]
  MIC: 32 µg/mL (≈ 161 µM)
Staphylococcus aureus [12]
  MBC: 256 µg/mL (≈ 1290 µM)
Staphylococcus aureus [13]
  MBC: 128 µg/mL (≈ 645 µM)
Staphylococcus aureus [14]
  MIC: 64 µg/mL (≈ 323 µM)
Staphylococcus aureus [15]
  MBC: 64 µg/mL (≈ 323 µM)
Staphylococcus aureus [16]
  MIC: 64 µg/mL (≈ 323 µM)
Staphylococcus aureus [17]
  MBC: 128 µg/mL (≈ 645 µM)
Staphylococcus aureus [18]
  MBC: 32 µg/mL (≈ 161 µM)
Staphylococcus aureus [19]
  MIC: 32 µg/mL (≈ 161 µM)
Staphylococcus aureus [20]
  MIC: 32 µg/mL (≈ 161 µM)
Staphylococcus aureus [21]
  MIC: 64 µg/mL (≈ 323 µM)
Staphylococcus aureus [22]
  MIC: 64 µg/mL (≈ 323 µM)
Staphylococcus aureus [23]
  MBC50: 64 µg/mL (≈ 323 µM)
  MBC90: 128 µg/mL (≈ 645 µM)
Staphylococcus aureus [24]
  MIC50: 64 µg/mL (≈ 323 µM)
  MIC90: 64 µg/mL (≈ 323 µM)
Staphylococcus aureus [25]; read-out: MIC50
  MBC50 (60.1); MBC90 (60.2): 128 µg/mL (≈ 645 µM)
Staphylococcus aureus [25]; read-out: MIC90
  MBC50 (60.1); MBC90 (60.2): 128 µg/mL (≈ 645 µM)
Staphylococcus aureus [26]
  MIC: 16 µg/mL (≈ 80.7 µM)
Staphylococcus aureus [27]
  MBC: 128 µg/mL (≈ 645 µM)
Staphylococcus aureus [28]
  MIC: 16 µg/mL (≈ 80.7 µM)
Staphylococcus aureus [29]
  MBC: 32 µg/mL (≈ 161 µM)
Staphylococcus aureus [30]
  MIC: 16 µg/mL (≈ 80.7 µM)
Staphylococcus aureus [31]
  MBC: 128 µg/mL (≈ 645 µM)
Staphylococcus aureus [32]
  MIC: 64 µg/mL (≈ 323 µM)
Staphylococcus aureus [33]
  MBC: 64 µg/mL (≈ 323 µM)
Staphylococcus aureus [34]
  MBC: 64 µg/mL (≈ 323 µM)
Staphylococcus aureus [35]
  MBC: 64 µg/mL (≈ 323 µM)

## C[C@H]1COc2c(N3CCN(C)CC3)c(F)cc3c(=O)c(C(=O)O)cn1c23.C[C@H]1COc2c(N3CCN(C)CC3)c(F)cc3c(=O)c(C(=O)O)cn1c23.O [LEVOFLOXACIN]
Staphylococcus aureus [1]
  MBC: 0.5 µg/mL
Staphylococcus aureus [2]
  MIC: 8 µg/mL
Staphylococcus aureus [3]
  MIC: 0.25 µg/mL
Staphylococcus aureus [4]
  MBC: > 16 µg/mL
Staphylococcus aureus [5]
  MIC: > 16 µg/mL
Staphylococcus aureus [6]
  MIC50: 16 µg/mL
  MIC90: > 16 µg/mL
Staphylococcus aureus [7]
  MBC: 0.25 µg/mL
Staphylococcus aureus [8]
  MIC: 0.5 µg/mL
Staphylococcus aureus [9]
  MBC: 0.25 µg/mL
Staphylococcus aureus [10]
  MIC: 0.25 µg/mL
Staphylococcus aureus [11]
  MIC: 0.125 µg/mL
Staphylococcus aureus [12]
  MBC: 0.5 µg/mL
Staphylococcus aureus [13]
  MBC: 0.5 µg/mL
Pseudomonas aeruginosa
  MIC: 0.5 µg/mL
Staphylococcus aureus [14]
  MIC: 0.25 µg/mL
Staphylococcus aureus [15]
  MBC: > 16 µg/mL
Staphylococcus aureus [16]
  MIC: 0.25 µg/mL
Staphylococcus aureus [17]
  MBC: 0.25 µg/mL
Staphylococcus aureus [18]
  MBC: > 16 µg/mL
Staphylococcus aureus [19]
  MIC: 0.5 µg/mL
Staphylococcus aureus [20]
  MIC: 0.25 µg/mL
Staphylococcus aureus [21]
  MIC: 0.5 µg/mL
Staphylococcus aureus [22]
  MIC: 0.25 µg/mL
Staphylococcus aureus [23]
  MBC50: >16 µg/mL
  MBC90: >16 µg/mL
Staphylococcus aureus [24]
  MIC50: 0.25 µg/mL
  MIC90: 0.5 µg/mL
Staphylococcus aureus [26]
  MIC: 16 µg/mL
Staphylococcus aureus [27]
  MBC: 0.5 µg/mL
Staphylococcus aureus [28]
  MIC: 16 µg/mL
Staphylococcus aureus [29]
  MBC: > 16 µg/mL
Staphylococcus aureus [30]
  MIC: 8 µg/mL
Staphylococcus aureus [31]
  MBC: 0.5 µg/mL
Staphylococcus aureus [32]
  MIC: 0.25 µg/mL
Staphylococcus aureus [33]
  MBC: 0.25 µg/mL
Staphylococcus aureus [34]
  MBC: > 16 µg/mL
Escherichia coli
  MIC: 0.025 µg/mL
Staphylococcus aureus [35]
  MBC: 0.5 µg/mL
